This note sets out measurements from US11208418B2, “Nitrogenous tricyclic compounds and uses thereof in medicine” (SUNSHINE LAKE PHARMA CO., LTD., priority 2018, dated 2021).

Data set [1] in a line: Liver microsome stability test. The class given is in vitro ADME. The conditions noted are these: rat liver microsomes, compound 1 μM, 0.5 mg/mL microsome, 37° C.; for half-life at 1 μM: pH 7.4. The method, then: The solution of compound in DMSO (10 mM) was diluted with a mixed solvent of acetonitrile and water (1:1, v/v) to get a 100 μM compound solution, and then the 100 μM compound solution was diluted with potassium phosphate buffer (0.1 M, pH 7.4) to get a 3 μM compound solution. NADPH was formulated with potassium phosphate buffer (0.1 M, pH 7.4) to NADPH solution (6 mM). Rat liver microsome was formulated with potassium phosphate buffer (0.1 M, pH 7.4) to liver microsome solution (1.5 mg/mL).
The total volume of incubation mixture was 45 μL, including 15 μL rat liver microsome solution (1.5 mg/mL), 15 μL compound solution (3 μM) and 15 μL NADPH solution (6 mM), the final concentration of liver microsome in the incubation mixture was 0.5 mg/mL, the compound concentration was 1 μM, the NADPH concentration was 2 mM.
The incubation mixture was incubated at 37° C. The reaction was terminated by adding 120 μL acetonitrile solution containing internal standard at different time points (20 min and 60 min), and centrifuged at 4000 rpm for 5 min. The supernatant was took out and analyzed by LC-MS/MS.
At the same time, a parallel incubation test was set up, using inactivated rat liver microsomes as negative control and verapamil at the same concentration as positive control. The reaction was incubated at 37° C. and terminated at different time points (20 minutes and 60 minutes).
The ratio of sample peak area to internal standard peak area was obtained by analyzing through LC/MS/MS, the drug content of the negative control was as 100%, the drug relative content at each time point was calculated. The rate constant was obtained by plotting based on “Log[compound concentration]” to “incubating time”, and then the half-life T1/2 and intrinsic clearance CLHep of the compound were calculated.
(Microsomes from liver hold many membrane-bound enzymes, among them those of drug oxidation.)

Data set [2] concerns the target farnesoid X receptor protein (Homo sapiens (Human), UniProt Q96RI1). The experiment in a line: Coactivation of TR-FRET farnesoid X receptor protein (Invitrogen PV4833 Kit). The following applies: TR-FRET coactivator recruitment, Fluorescein-SRC2-2, 1 hour at room temperature. The class given is biochemical. A general note: In TR-FRET formats the signal depends on donor and acceptor labels being close together.
Method: Purchasing Invitrogen PV4833 Kit.
Step 1, the compound was weighed and dissolved in 100% DMSO, the highest concentration is 3000 μM, and then diluted with DMSO by 3-fold serial dilution to get 10 concentrations.
Step 2, the above formulated compound solutions were diluted 100 times with the buffer provided in the kit, which were mixed respectively and 10 μL of which were added into a 384 well plate in turn.
Step 3, FXR recombinant nucleo receptor protein was diluted with a buffer to formulate 4× concentration, and 5 μL of which was added into the above 384 well plate containing the compound.
Step 4, Fluorescein-SRC2-2 and Tb anti-GST antibody were diluted with a buffer respectively, both concentration are 4×, after the two reagents were mixed together, 10 μL of which was added into the 384 well plate described in step 3.
At last, the solution in the 384 well plate was blend by centrifugation, and then incubated at room temperature for 1 hour.

Data set [3] in a line: Pharmacokinetic test in SD rats. The class given is in vivo. The following applies: male, rat, plasma. On the procedure:
Experimental animals: 6 healthy male adult SD rats (purchased from Hunan SJA Laboratory Animal Co.; Ltd) were randomized into 2 groups, 3 in each group, the groups were administered by intravenous injection and gavage respectively.
Preparation of drugs: an amount of the compound was scaled, and the target concentrate of the compound was prepared by addition of 5% DMSO, 10% Kolliphor HS15 and 85% saline (0.9%).
Administration and samples collection: the animals were fasted 12 hours before administration and provided again 3 hours post-administration, SD rats were administrated by intravenous injection from hindlimb peduncular veins (1 mg/kg) and by gavage (PO, 5 mg/kg). 200-400 μL of blood was collected at different time points 0, 0.083, 0.25, 0.5, 1, 2, 4, 6, 8, 24 h from rats tail vein. Blood collection was 200-400 μL per time point. The blood collected at each time point was placed in K2EDTA anticoagulant tube, and stored at a couveuse with ice bags. All the samples in 15 min were centrifuged at 4600 r/min at 4° C. for 5 min, plasma samples were obtained, the concentrates of compound in the plasma samples were determined by LC/MS/MS, the pharmacokinetic parameters were calculated based on the drug concentration-time curve.

Sequence of farnesoid X receptor protein (Q96RI1 262-486, other chains not shown): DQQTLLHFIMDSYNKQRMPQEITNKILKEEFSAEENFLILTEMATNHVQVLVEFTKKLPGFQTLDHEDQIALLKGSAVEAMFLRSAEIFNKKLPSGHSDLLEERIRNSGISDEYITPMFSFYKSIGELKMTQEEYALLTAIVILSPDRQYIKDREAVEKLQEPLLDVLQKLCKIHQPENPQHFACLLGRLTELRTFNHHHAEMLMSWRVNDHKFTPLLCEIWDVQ

In data set [1], `O=C(O)c1ccc2c(c1)Oc1ccc(OCc3c(-c4ccccc4OC(F)(F)F)noc3C3CC3)nc1CC2` [Example 2, 2-((5-cyclopropyl-3-(2-(trifluoromethoxy)phenyl)isoxazol-4-yl)methoxy)-10,11-dihydrobenzo[6,7]oxepino[3,2-b]pyridine-7-carboxylic acid] showed a half-life at 1 μM of 28.8 min and a ClHep of 86.33 mL/min/kg.

Molecule `O=C(O)c1ccc2c(c1)Oc1ccc(OCc3c(-c4ccccc4OC(F)(F)F)noc3C3CC3)nc1C1(CC1)C2` [Example 3, 2-((5-cyclopropyl-3-(2-(trifluoromethoxy)phenyl)isoxazol-4-yl)methoxy)-10H-Spiro[benzo[6,7]oxepino[3,2-b]pyridine-11,1′-cyclopropane]-7-carboxylic acid] yielded a half-maximal effective concentration (EC50) in data set [2] of 8.6 nM. Also, in data set [1], the half-life at 1 μM turned out to be 26.8 min and the ClHep is given as 92.61 mL/min/kg. In data set [3] (iv, 1 mg/kg), this molecule gave an AUC(0-inf) of 1740 ng·h/mL, an AUC(0-t) of 1730 ng·h/mL, a peak concentration (Cmax) of 1660 ng/mL and an MRT inf of 60.6 min. In data set [3] (iv, 1 mg/kg), the Tmax came out at 4.98 min, the clearance was found to be 9.62 mL/min/kg and the half-life was 46.4 min. Also, in data set [3] (iv, 1 mg/kg, read-out: Vss), the Vd stood at 0.584 L/kg. Besides, the bioavailability in data set [3] (po 5 mg/kg versus iv 1 mg/kg) came out at 71.3%. In data set [3] (po, 5 mg/kg), the AUC(0-inf) came out at 6210 ng·h/mL, the AUC(0-t) was 6170 ng·h/mL, the peak concentration (Cmax) was determined as 2320 ng/mL and the mean residence time (MRT inf) is 103 min. Moreover, in data set [3] (po, 5 mg/kg), the Tmax amounted to 60 min and the half-life was 53.5 min.

In data set [1], `O=C(O)c1ccc2c(c1)Oc1ccc(OCc3c(-c4ccc(Cl)cc4Cl)noc3C3CC3)nc1C1(CC1)C2` [Example 5, 2-((5-cyclopropyl-3-(2,4-dichlorophenyl)isoxazol-4-yl)methoxy)-10H-spiro[benzo[6,7]oxepino[3,2-b]pyridine-11,1′-cyclopropane]-7-carboxylic acid] gave a half-life at 1 μM of 25 min and a ClHep of 99.23 mL/min/kg.

As a reminder, the half-life is the time needed for the level to fall by half in the phase considered. Usually EC50 stands for the concentration at which the effect is half-maximal. A low value points to higher potency in that assay. A word on the AUC(0-inf): it is the area under the concentration-time curve extrapolated to infinity. The low end stands for less exposure, the high end for more exposure. A word on the AUC(0-t): it is the area under the concentration-time curve up to a stated or last time point. The low end stands for low exposure, the high end for high exposure. In general, Cmax refers to the peak of the concentration-time curve. The term MRT inf denotes the average time that molecules of a dose stay in the body. As usually defined, the Tmax is the time at which the peak concentration occurs. As usually defined, the clearance is the rate of elimination divided by the concentration. A word on the bioavailability: it is the share of a dose that reaches the circulation, judged against a reference dose that is usually intravenous. The low end stands for poor availability, the high end for good availability.
